For series [1], the system named is Escherichia coli. Kind of series: Antibacterial activity against Escherichia coli ATCC 8739 assessed as bacterial growth inhibition by agar dilution method. The series is classed as functional. (In agar dilution, organisms are placed on agar that contains the substance at set levels.)
Series [2] relates to Escherichia coli. As to the kind of experiment: Antibacterial activity against clinical isolate Escherichia coli assessed as bacterial growth inhibition incubated for 24 hrs by agar dilution method. The class given is functional.
In series [3] the test system is Escherichia coli. Kind of series: Antibacterial activity against Escherichia coli ES142 assessed as bacterial growth inhibition. The class given is functional.
For series [4], the system named is Escherichia coli. As to the kind of experiment: Antibacterial activity against Escherichia coli DC0 assessed as bacterial growth inhibition. The series is classed as functional.
Series [5] concerns Escherichia coli. As to the kind of experiment: Antibacterial activity against Escherichia coli DC2 assessed as bacterial growth inhibition. The class given is functional.
In another series the target is DNA gyrase (Escherichia coli, UniProt P0AES4+P0AES6). As to the kind of experiment: Inhibition of Escherichia coli DNA gyrase. The class given is protein-complex assay.
The test system of series [6] is Escherichia coli. Kind of series: Antibacterial activity against Escherichia coli DH52 assessed as bacterial growth inhibition. The series is classed as functional.
Series [7] has as its system Escherichia coli. As to the kind of experiment: Potency index, ratio of norfloxacin MIC to compound IC50 for antibacterial activity against Escherichia coli DH52. The series is classed as functional.
The subject of series [8] is Escherichia coli. As to the kind of experiment: Potency index, ratio of ciprofloxacin MIC to compound IC50 for antibacterial activity against Escherichia coli JM109. The class given is functional.
In series [9] the test system is Escherichia coli. As to the kind of experiment: Potency index, ratio of norfloxacin MIC to compound IC50 for antibacterial activity against Escherichia coli JM109. The series is classed as functional.
The test system of series [10] is Escherichia coli. As to the kind of experiment: Potency index, ratio of ciprofloxacin MIC to compound IC50 for antibacterial activity against Escherichia coli DH52. The following applies: time 24 hrs. The series is classed as functional.
Series [11] relates to Escherichia coli. Kind of series: Antibacterial activity against Escherichia coli JM109 assessed as bacterial growth inhibition. The class given is functional.
Series [12] concerns Escherichia coli. As to the kind of experiment: In vivo antibacterial activity against Escherichia coli H560 infected in sc dosed CD-1 mouse assessed as bacterial growth inhibition. The series is classed as functional. The conditions noted are these: read-out: PD50.
The test system of series [13] is Escherichia coli. Kind of series: Antibacterial activity against Escherichia coli H560 assessed as bacterial growth inhibition. The series is classed as functional.
The subject of series [14] is Escherichia coli. As to the kind of experiment: In vivo antibacterial activity against Escherichia coli H560 infected in po dosed CD-1 mouse assessed as bacterial growth inhibition. The following applies: read-out: PD50. The class given is functional.
For series [15], the system named is Escherichia coli. Kind of series: In vivo antibacterial activity against Escherichia coli NCTC 10419 infected in po dosed CF-mouse assessed as bacterial growth inhibition. The class given is functional, organism-based.
Series [16] deals with Escherichia coli. As to the kind of experiment: Antibacterial activity against Escherichia coli NCTC 10419 assessed as bacterial growth inhibition. The class given is functional.
The nature of series [17]: Acute toxicity in iv dosed mouse assessed as lethal dose. The following applies: in vivo. The class given is organism-based.
The subject of series [18] is Escherichia coli. Kind of series: Antibacterial activity against nalidixic acid resistant Escherichia coli assessed as bacterial growth inhibition. The series is classed as functional.
The subject of series [19] is Escherichia coli. As to the kind of experiment: Antibacterial activity against Escherichia coli KC-14 infected in po dosed mouse assessed as bacterial growth inhibition. The conditions noted are these: Escherichia coli, KC-14, po, read-out: ED50. The series is classed as functional.
Series [20] has as its system Escherichia coli. Kind of series: Antibacterial activity against Escherichia coli assessed as bacterial growth inhibition measured after 18 hrs by two-fold serial dilution method. The class given is functional.
Series [21] deals with Escherichia coli. Kind of series: Antibacterial activity against drug-sensitive Escherichia coli assessed as bacterial growth inhibition. The series is classed as functional.

≈ marks a conversion by molar mass, not a printed value. A value given as a limit tells only on which side of the number the result lay.

Ten molecules from ChEMBL document CHEMBL5244219, “Recent developments of quinolone-based derivatives and their activities against Escherichia coli” (Eur J Med Chem, 2018) can be followed below.

Take `CCn1cc(C(=O)O)c(=O)c2cc(F)c(N3CCN(CC(=O)c4ccoc4)CC3)cc21`: the MIC (in general, the smallest concentration in the dilution series that meets the test's criterion for growth inhibition) in the series with Escherichia coli [1] came to 0.049 µg/mL (≈ 0.115 µM).
Consider `CO/N=C1\CN(c2nc3c(cc2F)c(=O)c(C(=O)O)cn3C2CC2)CC1CN` (stereo unspecified) [GEMIFLOXACIN], for which the MIC90 (in general, the lowest concentration that inhibits either 90% of growth or 90% of the strains tested, depending on the study) in the series with Escherichia coli [2] was determined as 32 µg/mL (≈ 82.2 µM).
`C[C@H](N)[C@@H]1CCN(c2cc3c4c(c2)c(=O)c(C(=O)O)cn4[C@@H](C)CO3)C1`: the minimum inhibitory concentration (MIC) in the series on Escherichia coli [3], in the series with Escherichia coli [4] and with Escherichia coli [5] was 0.063 µg/mL (≈ 0.176 µM) throughout. For the same molecule, the IC50 (usually the concentration that gives 50% inhibition) on DNA gyrase was 17.9 µM.
Turning to `Cc1c(N2CCN(Cc3nc4ccccc4n3Cc3ccc(Cl)cc3Cl)CC2)c(F)cc2c(=O)c(C(=O)O)cn(C3CC3)c12`, the MIC with Escherichia coli [6] and in the series with Escherichia coli [11] was 0.125 µg/mL (≈ 0.197 µM) throughout. In addition, the Ratio in the series on Escherichia coli [7], in the series on Escherichia coli [8], in the series with Escherichia coli [9] and in the series with Escherichia coli [10] was 2 each time.
Take `O=C(O)c1cn(-c2ccc(F)cc2F)c2nc(N3CCCC3)c(F)cc2c1=O`: the ED50 in the series on Escherichia coli [12] was 0.2 mg/kg; in the series on Escherichia coli [14], 0.5 mg/kg. Also, the minimum inhibitory concentration (MIC) in the series on Escherichia coli [13] worked out at 0.025 µg/mL (≈ 0.0642 µM).
For the molecule `COc1cc(Cc2cnc(/N=C3\C(=O)N(CN4CCN(c5cc6c(cc5F)c(=O)c(C(=O)O)cn6C5CC5)CC4)c4ccc(C)cc43)nc2N)cc(OC)c1OC`, the EC50 in the series on Escherichia coli [15] was found to be 0.62 mg/kg. The minimal inhibitory concentration (MIC) in the series on Escherichia coli [16] worked out at 0.0002 µg/mL (≈ 0.000257 µM).
In the case of `CN1CCN(c2c(F)cc3c(=O)c(C(=O)O)c4scc5n4c3c2OC5)CC1`, the LD50 (commonly the dose expected to kill half of the subjects tested) in series [17] worked out at 237 mg/kg. In addition, in the series with Escherichia coli [18], the MIC amounted to 0.2 µg/mL (≈ 0.514 µM). Also, the ED50 with Escherichia coli [19] amounted to 1.01 mg/kg.
`C[C@H]1COc2cc(N3CC[C@@H](C(C)(C)N)C3)cc3c(=O)c(C(=O)O)cn1c23`: the minimal inhibitory concentration (MIC) in the series with Escherichia coli [3], in the series on Escherichia coli [4] and with Escherichia coli [5] was 0.063 µg/mL (≈ 0.17 µM) throughout. Moreover, the concentration for half-maximal inhibition (IC50) against DNA gyrase was 8.62 µM.
On to `CC(C)(CF)n1cc(C(=O)O)c(=O)c2cc(F)c(N3CC[C@H](N)C3)cc21`, for which the minimum inhibitory concentration (MIC) in the series with Escherichia coli [20] came out at 0.002 µg/mL (≈ 0.00547 µM).
Consider `O=C(O)c1cn(C2CC2)c2cc(N3CCN([C@@H]4O[C@H](CO)[C@@H](O)[C@H](O)[C@H]4O)CC3)c(F)cc2c1=O`, for which the MIC with Escherichia coli [21] is at most 0.03 µg/mL.
